Molecular target: T1, Type-2 angiotensin II receptor/Low affinity immunoglobulin epsilon Fc receptor (Homo sapiens, UniProt P06734+P50052)
T1 sequence (P50052 whole entry): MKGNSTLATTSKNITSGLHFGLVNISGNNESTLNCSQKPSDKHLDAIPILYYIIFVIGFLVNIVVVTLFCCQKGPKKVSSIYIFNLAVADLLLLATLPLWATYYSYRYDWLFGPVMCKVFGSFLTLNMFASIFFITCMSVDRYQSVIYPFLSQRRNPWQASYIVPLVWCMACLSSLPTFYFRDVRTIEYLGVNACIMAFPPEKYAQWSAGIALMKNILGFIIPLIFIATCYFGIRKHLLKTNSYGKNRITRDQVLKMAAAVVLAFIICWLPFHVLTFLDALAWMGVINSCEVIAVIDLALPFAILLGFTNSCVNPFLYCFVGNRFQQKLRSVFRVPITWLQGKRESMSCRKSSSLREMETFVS
T1 sequence (P06734 whole entry): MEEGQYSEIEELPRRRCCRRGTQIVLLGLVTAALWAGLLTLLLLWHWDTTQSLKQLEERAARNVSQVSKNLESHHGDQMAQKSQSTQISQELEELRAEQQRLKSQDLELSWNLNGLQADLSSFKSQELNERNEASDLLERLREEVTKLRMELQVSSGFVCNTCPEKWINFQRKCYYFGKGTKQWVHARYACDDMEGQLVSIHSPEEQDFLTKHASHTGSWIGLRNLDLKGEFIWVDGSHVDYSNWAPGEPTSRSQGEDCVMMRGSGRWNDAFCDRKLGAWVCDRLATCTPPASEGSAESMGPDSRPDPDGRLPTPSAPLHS
Assay: Radioligand Assay
Description: All synthesized ligands were evaluated in a radioligand assay by displacing 125I-[Sar1, Ile8]-Angiotensin II (Perkin Elmer, NEX248050UC) from human AT2R fused to Cb23 or human/rodent/cynomolgus/minipig/dog WT AT2R in HEK-293 cells membrane preparations, using C21 (Vicore Pharma) and Angiotensin II (endogenous ligand) as reference. The affinity was determined using an eight-point dose-response curve, each point performed in duplicates. The compounds were also evaluated in a counterscreen binding assay for displacement of 125I-[Sar1, Ile8]-Angiotensin II binding to human AT1R in HEK-293 cell membranes. For AT1R, the percent displacement was determined at 1 μM and […] or using an eight-point dose-response curve, each point performed in duplicates with Candesartan and Losartan used as reference.For the AT2R/AT1R binding assays, cell membranes, expressing AT2R_Cb23, AT2R or AT1R, were incubated with 0.05 nM 125I-[Sarl, Ile8]-Ang II. The ligand competition assay was performed in a total volume of 100 μL assay buffer (50 mM Tris, 5 mM MgCl2, 1 mM EDTA, 0.1% BSA, pH 7.4), at concentrations ranging from 1 μM to 10 μM. For each experiment, each ligand concentration was tested in duplicate. Non-specific binding (NSB) was determined by the inclusion of 10 μM unlabeled [Sarl]-Ang II (Sigma Aldrich). The reaction was initiated by the addition of radioligand, after which the plates were incubated at 25° C. for one hour. The reaction was terminated by rapid filtration using a vacuum harvester, applying six washes with 100 μL of ice-cold wash buffer (50 mM Tris.HCl, pH 7.4). The filter plates GF/C (Perkin Elmer) were pre-soaked in 0.5% PEI. The residual amount of radioactivity was determined via liquid scintillation counting. IC50 values, representing the concentration at which each ligand displaced 50% of 125I-[Sarl, Ile8]-Ang II, were calculated using GraphPad Prism 7.02 by applying a Non-linear regression equation (variable slope, four parameters) on the data.

Row | IC50 [µM] | Structure (SMILES)
1 | 18.5 | CC(C)Cc1ccc(-c2nn[nH]n2)c(N2CCN(Cc3nc4ncccc4o3)CC2)c1 [US20240368133, Compound A-71]
2 | 3.36 | CCCCNC(=O)NS(=O)(=O)c1ccc(C(F)(F)F)cc1N1CCN(Cc2nc3ccccc3n2C)CC1 [US20240368133, Compound A-10]
3 | 9.97 | CCc1nc2ccc(NC(=O)c3ccccc3)cc2c(=O)n1CC1CCN(c2ccccc2-c2nn[nH]n2)CC1 [US20240368133, Compound A-245]
4 | 1.68 | c1ccc2sc(CN3CCN(c4cc(NCC5CC5)ccc4-c4nn[nH]n4)CC3)nc2c1 [US20240368133, Compound A-62]

From BindingDB's records for patent US20240368133 (Confo Therapeutics, 2024)
